Laboratory results from patent US20200017496A1 (priority 2017, published 2020).
“And” between values parts separate entries of the source, which are not always exact repeats. Equal values may be shown once. Read-outs that look alike come from different tables or passages of the source.

System: Klebsiella pneumoniae (KPN) isolates
Test: MIC of compounds alone and combined with antibacterials, broth microdilution (CLSI)
Format: cell-based
Settings: for MIC ATB in combination: AF1 @ 4 μg/mL
Method in brief: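 First, log-phase suspensions are brought to a final 5·10^5 CFU/mL in cation-adjusted Mueller-Hinton broth. Then plates with compound, antibacterial, or both incubate 16-20 h at 35° C under ambient air. Finally, visual inspection gives the lowest growth-preventing concentration for each agent.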

CC1(C)S[C@@H]2[C@H](NC(=O)[C@H](N)c3ccc(O)cc3)C(=O)N2[C@H]1C(=O)O [AMX, Amoxicillin]
MIC: >128 µg/mL and 128 µg/mL
MIC ATB in combination (KPN 6299): 256 µg/mL
MIC ATB in combination (KPN 131119): 256 µg/mL
MIC ATB in combination (KPN 140513): >512 µg/mL
MIC ATB in combination (KPN 190270): 16 µg/mL
MIC ATB in combination (KPN 190551): 64 µg/mL
MIC ATB in combination (KPN 200047): 16 µg/mL
MIC ATB in combination (KPN 200327): 32 µg/mL
MIC ATB in combination (KPN 260252): 256 µg/mL
MIC ATB in combination (KPN 260376): 32 µg/mL
MIC ATB in combination (KPN 270077): 4 µg/mL
MIC ATB in combination (KPN 700603): 4 µg/mL
MIC ATB in combination (KPN ARA): 256 µg/mL
MIC ATB in combination (KPN BAA-1898): 256 µg/mL
MIC ATB in combination (KPN LIB): 16 µg/mL
MIC ATB in combination (KPN UFR22_O): 64 µg/mL
MIC ATB in combination (KPN UFR23): 32 µg/mL
MIC ATB in combination (KPN UFR24): 64 µg/mL
MIC ATB in combination (KPN UFR25): 512 µg/mL
MIC ATB in combination (KPN UFR65): 256 µg/mL
MIC ATB in combination (KPN UFR66): 256 µg/mL
MIC ATB in combination (KPN UFR67): 256 µg/mL
MIC ATB in combination (KPN UFR68): 256 µg/mL
MIC ATB in combination (KPN UFR76): >512 µg/mL
MIC ATB in combination (KPN UFR77): 64 µg/mL
MIC ATB in combination (KPN UFR78): >512 µg/mL
MIC ATB in combination (KPN UFR79): >512 µg/mL
MIC ATB in combination (KPN UFR81): >512 µg/mL
MIC ATB in combination (KPN UFR215): 64 µg/mL
MIC ATB in combination (KPN UFR216): 32 µg/mL
MIC ATB in combination (KPN UFR217): 64 µg/mL
MIC ATB in combination (KPN UFR220): 512 µg/mL
MIC ATB in combination (KPN UFR221): 256 µg/mL
MIC ATB in combination (KPN UFR222): >512 µg/mL
MIC ATB in combination (KPN UFR227O): 512 µg/mL
MIC (Klebsiella pneumoniae): > 256 µg/mL
MIC (Klebsiella pneumoniae, BAA1898, strain KPN BAA-1898 (TEM-1, SHV-11, SHV-12, KPC-2), ATB alone, read-out: MIC): > 1020 µg/mL
MIC (Klebsiella pneumoniae, BAA1898, strain KPN BAA-1898 (TEM-1, SHV-11, SHV-12, KPC-2), CLA @ 4 μg/ml+ ATB, read-out: MIC): > 512 µg/mL
MIC (Klebsiella pneumoniae, strain KPN 6299 (TEM-1, SHV-11, OXA-163), ATB alone, read-out: MIC): > 1020 µg/mL
MIC (Klebsiella pneumoniae, strain KPN 6299 (TEM-1, SHV-11, OXA-163), CLA @ 4 μg/ml+ ATB, read-out: MIC): > 512 µg/mL
MIC (Klebsiella pneumoniae, strain KPN 131119 (TEM-1, SHV-11, CTX-M-15, OXA-1, OXA-48), CLA @ 4 μg/ml+ ATB, read-out: MIC): > 512 µg/mL
MIC (Klebsiella pneumoniae, strain KPN 200047 (TEM-1, SHV-32, CTX-M-15, OXA-1), CLA @ 4 μg/ml+ ATB, read-out: MIC): 32 µg/mL
MIC (Klebsiella pneumoniae, strain KPN 200327 (TEM-1, SHV-1, CTX-M-15, OXA-1), CLA @ 4 μg/ml+ ATB, read-out: MIC): 32 µg/mL
MIC (Klebsiella pneumoniae, strain KPN 270077 (TEM-1, SHV-1, CTX-M-15), CLA @ 4 μg/ml+ ATB, read-out: MIC): 32 µg/mL
MIC (Klebsiella pneumoniae, strain KPN 700603 (SHV-18, OXA-2), CLA @ 4 μg/ml+ ATB, read-out: MIC): 8 µg/mL
MIC (Klebsiella pneumoniae, strain KPN LIB (SHV-11, OXA-48), CLA @ 4 μg/ml+ ATB, read-out: MIC): > 512 µg/mL
MIC (Klebsiella pneumoniae, strain KPN UFR68 (TEM-1, SHV-11, CTX-M-15, KPC-3), ATB alone, read-out: MIC): > 1020 µg/mL
